Source: patent US7470663B2, “Mixtures of insulin drug-oligomer conjugates comprising polyalkylene glycol, uses thereof, and methods of making same” (Biocon Limited, priority 2001, dated 2008)

Tested on: normal fasted beagle dogs
Assay: Activity and inter-subject variability: glucose lowering after oral liquid dosage formulation
Type: in vivo
Details: fasted beagles, 0.25 mg/kg oral liquid; compared with polydispersed PEG7AVG-hexyl-insulin, monoconjugate (FIG. 21)
Protocol: The inter-subject variability may be measured by various methods as will be understood by those skilled in the art. The inter-subject variability is preferably calculated as follows. The area under a dose response curve (AUC) (i.e., the area between the dose-response curve and a baseline value) is determined for each subject. The average AUC for all subjects is determined by summing the AUCs of each subject and dividing the sum by the number of subjects. The absolute value of the difference between the subject's AUC and the average AUC is then determined for each subject. The absolute values of the differences obtained are then summed to give a value that represents the inter-subject variability. Lower values represent lower inter-subject variabilities and higher values represent higher inter-subject variabilities.
An effective animal model for evaluating formulations uses normal fasted beagle dogs. These dogs are given 0.25 mg/kg of insulin conjugates to evaluate the efficacy of various formulations.
The protocol for dog experiments calls for a blood glucose measurement at time zero just before a drug is administered. The oral liquid dosage formulation is then squirted into the back of the dog's mouth. In each case, the dogs received 0.25 mg/kg of this solution. Blood is drawn at 15, 30, 60 and 120 minutes and glucose levels are measured and graphed. The lower the glucose levels, the better the activity of the insulin conjugate.

Row | Substance | activity (glucose lowering) | inter-subject variability
1 | PEG10-hexyl-insulin, monoconjugate: non-polydispersed mixture of mPEG10-hexyl-insulin, monoconjugates | higher activity | less inter-subject variability
2 | PEG7-hexyl-insulin, monoconjugate: human insulin monoconjugated at the B29 position with the activated mPEG7-hexyl oligomer of Example 18; non-polydispersed mixture | higher activity | less inter-subject variability
